Test results reported in patent publication US10087165B2, “Fluoroquinolones and use thereof to treat bacterial infections” (UNIVERSITÉ PIERRE ET MARIE CURIE—PARIS 6 (UPMC), priority 2014, dated 2018).
≈ marks a conversion by molar mass, not a printed value. Read-outs that look alike come from different tables or passages of the source.

Legend:
[1] = system: M. tuberculosis H37Rv; experiment: microbe, parasite or virus in culture; type: cell-based; design: MIC against wild-type M. tuberculosis strain (below moxifloxacin MIC): unit not given beside the values; details: for MIC: Mycobacterium tuberculosis
[2] = system: M. tuberculosis H37Rv; details: Table 2, published previously (Poissy et al. 2010); cited from earlier work
[3] = biological target: T1, M. tuberculosis DNA gyrase (Mycobacterium tuberculosis, UniProt P9WG45+P9WG47); design: made in house; details: Table 2; published previously (Poissy et al. 2010); cited from earlier work
[4] = biological target: T1, M. tuberculosis DNA gyrase; experiment: biochemical
[5] = system: M. tuberculosis H37Rv strain; experiment: Minimal effective dosage in the murine TB model; type: in vivo, Balb/C/J female mice; details: 25 mg/kg/j, Gavage
Experimental: Four-week-old Balb/C/J female mice were infected intravenously with 10^6 CFU of M. tuberculosis H37Rv strain. On the day following the infection (D1), 10 mice were sacrificed to determine the exact baseline values of spleen weight and CFU counts in the lungs. The remaining mice were allocated to the following treatment groups: an untreated negative control group for survival monitoring, a positive control group treated for 1 month with isoniazid (INH) 25 mg/kg/d, […] test groups were treated with Quin18 and Quin19 at increasing dosages (25 mg/kg/d; 50 mg/kg/d; 100 mg/kg/d; 150 mg/kg/d) given by oral gavage, and two additional test groups were treated intravenously with Quin18 25 mg/kg/d and 100 mg/kg/d. All the groups contained 10 mice and were treated from D1 to D28, 5 days a week. The parameters used for assessing the severity of infection and the effectiveness of treatments were survival rate, spleen weight, gross lung lesions and CFU counts in the lungs.
The minimal effective dosage was defined as the minimal dosage able to prevent mortality of the mice, spleen enlargement and the occurrence of gross lung lesions. CFU counts were considered to be a more precise way of determining the dose-ranging efficacy of Quin18 and Quin19.
Survival rates between groups were plotted on a Kaplan-Meier curve and compared using the log-rank test.

[6] = H37Rv, Table 2, read-out: MIC (M. tuberculosis) WT
[7] = H37RV, Table 3, read-out: MIC M. tuberculosis H37Rv

T1 sequence (P9WG47 whole entry): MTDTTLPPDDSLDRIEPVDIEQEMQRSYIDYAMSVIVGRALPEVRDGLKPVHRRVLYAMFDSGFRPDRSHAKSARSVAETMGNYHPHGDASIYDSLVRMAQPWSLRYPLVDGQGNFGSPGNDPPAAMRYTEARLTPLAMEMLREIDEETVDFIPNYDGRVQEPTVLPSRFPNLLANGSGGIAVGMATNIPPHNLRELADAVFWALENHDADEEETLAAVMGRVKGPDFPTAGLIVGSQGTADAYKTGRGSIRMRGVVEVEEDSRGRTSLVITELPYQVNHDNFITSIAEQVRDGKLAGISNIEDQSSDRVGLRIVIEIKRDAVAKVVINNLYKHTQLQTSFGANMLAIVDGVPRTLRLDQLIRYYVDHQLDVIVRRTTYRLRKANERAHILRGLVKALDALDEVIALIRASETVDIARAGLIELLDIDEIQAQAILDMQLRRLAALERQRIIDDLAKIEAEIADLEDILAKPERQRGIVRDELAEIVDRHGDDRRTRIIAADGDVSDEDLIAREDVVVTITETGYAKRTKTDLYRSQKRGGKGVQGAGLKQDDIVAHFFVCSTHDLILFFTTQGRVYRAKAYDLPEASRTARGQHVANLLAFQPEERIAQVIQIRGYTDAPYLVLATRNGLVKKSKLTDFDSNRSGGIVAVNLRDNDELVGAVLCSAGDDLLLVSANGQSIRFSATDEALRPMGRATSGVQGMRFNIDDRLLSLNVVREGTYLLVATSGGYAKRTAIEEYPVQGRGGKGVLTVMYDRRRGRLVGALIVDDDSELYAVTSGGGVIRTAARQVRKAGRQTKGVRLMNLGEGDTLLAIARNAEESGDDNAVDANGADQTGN
T1 sequence (P9WG45 whole entry): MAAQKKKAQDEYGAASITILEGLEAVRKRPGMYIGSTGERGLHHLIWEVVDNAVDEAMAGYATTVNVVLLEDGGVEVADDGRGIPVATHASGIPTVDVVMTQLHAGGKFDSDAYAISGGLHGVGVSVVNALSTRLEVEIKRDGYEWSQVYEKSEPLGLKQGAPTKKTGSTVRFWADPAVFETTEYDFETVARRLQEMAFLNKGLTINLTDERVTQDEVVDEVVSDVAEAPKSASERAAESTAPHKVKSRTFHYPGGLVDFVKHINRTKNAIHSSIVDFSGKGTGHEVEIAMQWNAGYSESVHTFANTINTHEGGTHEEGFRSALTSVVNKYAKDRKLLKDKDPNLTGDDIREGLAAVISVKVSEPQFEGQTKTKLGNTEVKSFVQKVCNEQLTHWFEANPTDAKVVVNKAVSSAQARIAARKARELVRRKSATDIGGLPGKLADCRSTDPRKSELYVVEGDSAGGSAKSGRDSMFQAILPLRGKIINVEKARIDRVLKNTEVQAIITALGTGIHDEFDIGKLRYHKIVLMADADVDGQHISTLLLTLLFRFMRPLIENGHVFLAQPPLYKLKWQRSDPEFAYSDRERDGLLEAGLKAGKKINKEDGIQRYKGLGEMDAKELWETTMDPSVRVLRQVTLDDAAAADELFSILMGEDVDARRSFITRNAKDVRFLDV

SMILES | MIC [1, 6] [µM] | MIC [1, 7] [µM] | IC50 [4] [µM] | further results
O=C(O)c1cn(C2CC2)c2cc(N3CCNCC3)c(F)cc2c1=O [Ciprofloxacin, ciprofloxacin, reference compound] | 1.5 (≈ 0.497 µg/mL) | – | – | –
CCCCCCCCCCCN1CCN(c2c(F)cc3c(=O)c(C(=O)O)cn(C4CC4)c3c2OC)CC1 [Compound 19, 1-cyclopropyl-6-fluoro-8-methoxy-4-oxo-7-(4-undecylpiperazin-1-yl)-1,4-dihydroquinoline-3-carboxylic acid] | – | 0.25 (≈ 0.129 µg/mL) | – | –
COc1c(N2CCNC(C)C2)c(F)cc2c(=O)c(C(=O)O)cn(C3CC3)c12 (centres unmarked) [Gatifloxacin, gatifloxacin] | – | – | – | MIC (M. tuberculosis) WT [2]: 0.32 µM (≈ 0.12 µg/mL); IC50 [3]: 6.8 µM
CCCCCCCCN1CCN(c2cc3c(cc2F)c(=O)c(C(=O)O)cn3C2CC2)CC1 [Quin 16, 1-cyclopropyl-6-fluoro-7-(4-octylpiperazin-1-yl)-4-oxo-1,4-dihydroquinoline-3-carboxylic acid] | ≤ 0.2 | – | 135 | –
CCCCCCCCCCCCCCCCN1CCN(c2cc3c(cc2F)c(=O)c(C(=O)O)cn3C2CC2)CC1 [Quin 10, 1-cyclopropyl-6-fluoro-7-(4-hexadecylpiperazin-1-yl)-4-oxo-1,4-dihydroquinoline-3-carboxylic acid] | 57 (≈ 31.7 µg/mL) | – | 105 | –
NNC(=O)c1ccncc1 [Isoniazid, isoniazid, reference compound] | – | – | – | Spleen weight [5]: 237 ± 73.8 mg; Survival: No. death ([5]; D1 to D28, 5 days a week, 10 mice): 0
CCCCCN1CCN(c2c(F)cc3c(=O)c(C(=O)O)cn(C4CC4)c3c2OC)CC1 [Quin 17, 1-cyclopropyl-6-fluoro-8-methoxy-4-oxo-7-(4-pentylpiperazin-1-yl)-1,4-dihydroquinoline-3-carboxylic acid] | 3.5 (≈ 1.51 µg/mL) | – | 60 | –
COc1c(N2C[C@@H]3CCCN[C@@H]3C2)c(F)cc2c(=O)c(C(=O)O)cn(C3CC3)c12 [Moxifloxacin, moxifloxacin, reference compound] | – | 1.2 (≈ 0.482 µg/mL) | – | MIC against wild-type M. tuberculosis strain (below moxifloxacin MIC) ([1]; Table 3): 1.2
CCCCCCCCCCN1CCN(c2cc3c(cc2F)c(=O)c(C(=O)O)cn3C2CC2)CC1 [Quin 9, 1-cyclopropyl-7-(4-decylpiperazin-1-yl)-6-fluoro-4-oxo-1,4-dihydroquinoline-3-carboxylic acid] | 0.5 (≈ 0.236 µg/mL) | – | 120 | –
CCCCCN1CCN(c2cc3c(cc2F)c(=O)c(C(=O)O)cn3C2CC2)CC1 [Quin 15, 1-cyclopropyl-6-fluoro-4-oxo-7-(4-pentylpiperazin-1-yl)-1,4-dihydroquinoline-3-carboxylic acid] | 6 (≈ 2.41 µg/mL) | – | 76 | –
CCCCCCCN1CCN(c2c(F)cc3c(=O)c(C(=O)O)cn(C4CC4)c3c2OC)CC1 [Compound 15, 1-cyclopropyl-6-fluoro-7-(4-heptylpiperazin-1-yl)-8-methoxy-4-oxo-1,4-dihydroquinoline-3-carboxylic acid] | – | 2.2 (≈ 1.01 µg/mL) | – | –
CCCCCCCCCCCCN1CCN(c2c(F)cc3c(=O)c(C(=O)O)cn(C4CC4)c3c2OC)CC1 [Compound 20, 1-cyclopropyl-7-(4-dodecylpiperazin-1-yl)-6-fluoro-8-methoxy-4-oxo-1,4-dihydroquinoline-3-carboxylic acid] | – | 0.47 (≈ 0.249 µg/mL) | – | –
CCCCCCCCCN1CCN(c2c(F)cc3c(=O)c(C(=O)O)cn(C4CC4)c3c2OC)CC1 [Compound 17, 1-cyclopropyl-6-fluoro-8-methoxy-7-(4-nonylpiperazin-1-yl)-4-oxo-1,4-dihydroquinoline-3-carboxylic acid] | – | 0.12 (≈ 0.0585 µg/mL) | – | –
CCCCCCCCCCCCCCCCN1CCN(c2c(F)cc3c(=O)c(C(=O)O)cn(C4CC4)c3c2OC)CC1 [Quin 20, 1-cyclopropyl-6-fluoro-7-(4-hexadecylpiperazin-1-yl)-8-methoxy-4-oxo-1,4-dihydroquinoline-3-carboxylic acid] | 0.2 (≈ 0.117 µg/mL) | – | 121 | –
